test system: Porcine atria myofibrils (atrial myosin ATPase); assay: Myofibril ATPase assay, porcine atria myofibrils; format: biochemical; conditions: Y75 value (no ‡ mark); porcine atria myofibrils
How it was run: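 Coupled PK-LDH readout, NADH loss at 340 nm, kinetic 75 min. Porcine atria myofibrils, pCa buffer (PIPES/CaCl2/EGTA, pH 7.0). Slopes (mAU/min) normalized to vehicle = 100%, 4-parameter fit; Y75 or Y125 reported.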

Row | Structure (SMILES) | Atrial EC25
1 | Cc1c(C2(C(=O)N[C@@H](C)c3ncc(C#N)cc3F)CC2)c(=O)[nH]c2ccc(F)c(C#N)c12 (single isomer, unassigned) [compound 2524] | 0.16 µM
2 | Cc1c(CC(=O)N[C@@H](C)c2ccc(C#N)nn2)c(=O)[nH]c2ccc(F)cc12 [compound 1120] | 2.58 µM

same assay, conditions: Y75 value: concentration required to reduce myosin ATP-ase activity by 25%; Porcine Atria Prep pCa 25 GEOM_MEAN

Row | Structure (SMILES) | Atrial EC25
3 | CC(NC(=O)Cc1cc2cc(F)ccc2[nH]c1=O)c1cc(C#N)c(F)s1 (stereo not drawn) [compound 4002] | 1.60 µM

same assay, conditions: porcine atria myofibrils; Y75 value (75% activity relative to no compound)

Row | Structure (SMILES) | Atrial EC25
4 | Cc1nccc2[nH]c(=O)c(CC(=O)N[C@H](C)c3ncc(C#N)cn3)c(C)c12 [compound 482] | 28.27 µM
5 | Cc1c(CC(=O)N[C@H](CO)c2ccc(C#N)cc2F)c(=O)[nH]c2ccnc(C(F)(F)F)c12 (single isomer, unassigned) [compound 224] | 6.57 µM
6 | C[C@H](NC(=O)[C@H](C)c1cc2c(C#N)nccc2[nH]c1=O)c1ccc(F)cc1F (single isomer, unassigned) [compound 360] | 100.00 µM
7 | Cc1nccc2[nH]c(=O)c(CC(=O)N[C@@H](C)c3ccc(C#N)cn3)c(C)c12 (single isomer, unassigned) [compound 254] | 18.17 µM
8 | Cc1cnncc1[C@H](C)NC(=O)Cc1c(C)c2c(C)nccc2[nH]c1=O [compound 481] | 100.00 µM
9 | CCCOc1nccc2[nH]c(=O)c(CC(=O)N[C@@H](C)c3ccc(F)cc3F)c(C)c12 [compound 384] | 0.21 µM
10 | C[C@H](NC(=O)Cc1c(C2CC2)c2cnccc2[nH]c1=O)c1ccc(F)cc1F [compound 444] | 1.14 µM
11 | Cc1c(CC(=O)N[C@H]2c3c(F)cc(F)cc3OC2(C)C)c(=O)[nH]c2ccnc(C#N)c12 (single isomer, unassigned) [compound 187] | 0.11 µM
12 | Cc1ccc2[nH]c(=O)c(CC(=O)N[C@@H](C)c3ncc(C#N)cc3F)cc2n1 [compound 463] | 4.39 µM
13 | Cc1nccc2[nH]c(=O)c(C3(C(=O)N[C@H](C)c4ccc(C#N)cc4F)CC3)c(C)c12 (single isomer, unassigned) [compound 3516] | 0.51 µM
14 | Cc1nccc2[nH]c(=O)c(CC(=O)N[C@@H]3CCc4cc(C#N)cc(F)c43)c(C)c12 (single isomer, unassigned) [compound 197] | 2.80 µM
15 | Cc1nccc2[nH]c(=O)c([C@H](C)C(=O)N[C@H](C)c3ccc(C#N)cc3F)c(C)c12 (single isomer, unassigned) [compound 184] | 100.00 µM

target: T1, Porcine ventricle myofibrils (ventricular myosin ATPase) (Sus scrofa, UniProt P79293); assay: Myofibril ATPase assay, porcine ventricle myofibrils; format: biochemical, porcine (Yucatan minipigs); conditions: Y75 value (no ‡ mark); porcine ventricle myofibrils
T1 construct: Myofibrils from porcine cardiac muscle was isolated from the left ventricle of Yucatan minipigs; tissue Exemplar Genetics; host or cells: left ventricle of Yucatan minipigs, myofibrils prepared in house
How it was run: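 ATPase activity of porcine left-ventricle myofibrils (Yucatan minipig) was followed through PK-LDH coupling as NADH loss at 340 nm, read every 1.5-2 min for 75 min. Slopes were normalised to vehicle wells and fitted to a 4-parameter logistic model. Values are Y75, the concentration giving a 25% drop in activity, or Y125 for activators.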

T1 sequence (P79293 whole entry): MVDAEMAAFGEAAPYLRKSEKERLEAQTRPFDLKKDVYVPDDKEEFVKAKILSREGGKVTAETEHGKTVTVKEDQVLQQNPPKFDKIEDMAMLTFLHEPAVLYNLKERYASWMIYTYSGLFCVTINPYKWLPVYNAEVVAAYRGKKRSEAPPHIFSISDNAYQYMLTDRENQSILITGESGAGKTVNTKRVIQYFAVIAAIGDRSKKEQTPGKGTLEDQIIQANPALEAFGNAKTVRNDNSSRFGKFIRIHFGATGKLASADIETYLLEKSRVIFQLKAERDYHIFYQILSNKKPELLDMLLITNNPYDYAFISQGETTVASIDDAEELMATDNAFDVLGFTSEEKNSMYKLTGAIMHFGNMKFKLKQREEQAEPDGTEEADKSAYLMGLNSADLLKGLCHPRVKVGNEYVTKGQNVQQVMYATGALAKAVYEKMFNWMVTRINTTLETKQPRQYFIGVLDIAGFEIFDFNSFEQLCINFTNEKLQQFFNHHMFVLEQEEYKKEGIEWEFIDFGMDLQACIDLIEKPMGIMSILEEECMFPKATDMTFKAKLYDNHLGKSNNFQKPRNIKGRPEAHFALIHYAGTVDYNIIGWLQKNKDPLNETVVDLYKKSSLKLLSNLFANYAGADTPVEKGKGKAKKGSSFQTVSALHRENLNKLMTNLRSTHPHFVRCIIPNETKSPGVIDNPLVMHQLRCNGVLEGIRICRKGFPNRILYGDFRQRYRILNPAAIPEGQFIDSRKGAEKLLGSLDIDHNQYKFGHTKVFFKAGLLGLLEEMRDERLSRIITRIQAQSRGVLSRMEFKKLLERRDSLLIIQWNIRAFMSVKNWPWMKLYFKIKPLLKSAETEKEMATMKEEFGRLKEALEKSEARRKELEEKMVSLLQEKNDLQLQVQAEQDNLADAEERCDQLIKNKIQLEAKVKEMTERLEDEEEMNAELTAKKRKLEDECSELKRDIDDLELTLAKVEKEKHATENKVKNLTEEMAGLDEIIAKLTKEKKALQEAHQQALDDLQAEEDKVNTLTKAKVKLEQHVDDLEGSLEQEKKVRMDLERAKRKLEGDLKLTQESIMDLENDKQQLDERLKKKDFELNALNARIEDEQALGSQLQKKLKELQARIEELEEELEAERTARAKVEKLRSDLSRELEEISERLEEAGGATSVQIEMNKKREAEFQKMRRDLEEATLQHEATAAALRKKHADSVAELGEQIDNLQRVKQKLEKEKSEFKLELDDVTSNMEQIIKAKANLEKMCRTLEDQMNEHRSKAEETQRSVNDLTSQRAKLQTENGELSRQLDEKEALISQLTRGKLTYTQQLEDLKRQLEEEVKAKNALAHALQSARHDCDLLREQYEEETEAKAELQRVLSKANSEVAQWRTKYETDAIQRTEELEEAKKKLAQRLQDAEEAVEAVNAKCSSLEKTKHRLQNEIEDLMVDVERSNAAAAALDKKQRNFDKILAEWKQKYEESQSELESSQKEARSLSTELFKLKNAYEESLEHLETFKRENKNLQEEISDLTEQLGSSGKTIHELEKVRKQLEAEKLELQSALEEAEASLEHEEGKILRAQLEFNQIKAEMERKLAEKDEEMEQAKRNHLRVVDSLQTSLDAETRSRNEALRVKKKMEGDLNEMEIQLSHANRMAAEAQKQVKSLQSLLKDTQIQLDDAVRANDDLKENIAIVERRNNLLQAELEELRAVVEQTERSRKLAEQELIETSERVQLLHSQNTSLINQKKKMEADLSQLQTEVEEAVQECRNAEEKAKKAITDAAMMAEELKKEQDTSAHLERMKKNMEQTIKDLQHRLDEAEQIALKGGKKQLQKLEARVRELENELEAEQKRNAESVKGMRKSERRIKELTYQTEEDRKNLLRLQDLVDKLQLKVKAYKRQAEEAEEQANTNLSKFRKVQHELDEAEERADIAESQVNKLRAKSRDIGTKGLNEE

Row | Structure (SMILES) | Ventricular EC25
16 | Cc1c(C2(C(=O)N[C@@H](C)c3ncc(C#N)cc3F)CC2)c(=O)[nH]c2ccc(F)c(C#N)c12 (single isomer, unassigned) [compound 2524] | 0.31 µM
17 | Cc1c(CC(=O)N[C@@H](C)c2ccc(C#N)nn2)c(=O)[nH]c2ccc(F)cc12 [compound 1120] | 10.61 µM

same assay, conditions: Y75 value: concentration required to reduce myosin ATP-ase activity by 25%; Porcine Ventricle Prep pCa 25 GEOM_MEAN

Row | Structure (SMILES) | Ventricular EC25
18 | CC(NC(=O)Cc1cc2cc(F)ccc2[nH]c1=O)c1cc(C#N)c(F)s1 (stereo not drawn) [compound 4002] | 100.00 µM

same assay, conditions: porcine ventricle myofibrils; Y75 value

Row | Structure (SMILES) | Ventricular EC25
19 | Cc1nccc2[nH]c(=O)c(CC(=O)N[C@H](C)c3ncc(C#N)cn3)c(C)c12 [compound 482] | 63.17 µM
20 | Cc1c(CC(=O)N[C@H](CO)c2ccc(C#N)cc2F)c(=O)[nH]c2ccnc(C(F)(F)F)c12 (single isomer, unassigned) [compound 224] | 100.00 µM
21 | C[C@H](NC(=O)[C@H](C)c1cc2c(C#N)nccc2[nH]c1=O)c1ccc(F)cc1F (single isomer, unassigned) [compound 360] | 100.00 µM
22 | Cc1nccc2[nH]c(=O)c(CC(=O)N[C@@H](C)c3ccc(C#N)cn3)c(C)c12 (single isomer, unassigned) [compound 254] | 23.41 µM
23 | Cc1cnncc1[C@H](C)NC(=O)Cc1c(C)c2c(C)nccc2[nH]c1=O [compound 481] | 100.00 µM
24 | CCCOc1nccc2[nH]c(=O)c(CC(=O)N[C@@H](C)c3ccc(F)cc3F)c(C)c12 [compound 384] | 11.67 µM
25 | C[C@H](NC(=O)Cc1c(C2CC2)c2cnccc2[nH]c1=O)c1ccc(F)cc1F [compound 444] | 20.82 µM
26 | Cc1c(CC(=O)N[C@H]2c3c(F)cc(F)cc3OC2(C)C)c(=O)[nH]c2ccnc(C#N)c12 (single isomer, unassigned) [compound 187] | 1.36 µM
27 | Cc1ccc2[nH]c(=O)c(CC(=O)N[C@@H](C)c3ncc(C#N)cc3F)cc2n1 [compound 463] | 26.99 µM
28 | Cc1nccc2[nH]c(=O)c(C3(C(=O)N[C@H](C)c4ccc(C#N)cc4F)CC3)c(C)c12 (single isomer, unassigned) [compound 3516] | 1.49 µM
29 | Cc1nccc2[nH]c(=O)c(CC(=O)N[C@@H]3CCc4cc(C#N)cc(F)c43)c(C)c12 (single isomer, unassigned) [compound 197] | 49.43 µM
30 | Cc1nccc2[nH]c(=O)c([C@H](C)C(=O)N[C@H](C)c3ccc(C#N)cc3F)c(C)c12 (single isomer, unassigned) [compound 184] | 100.00 µM

test system: Rabbit Psoas myofibrils (skeletal myosin ATPase); assay: Myofibril ATPase assay, rabbit psoas (skeletal) myofibrils; format: biochemical; conditions: Y75 value (no ‡ mark); rabbit psoas myofibrils
How it was run: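 Readout: A340 decline from NADH oxidation, PK/LDH-coupled to ADP release; kinetic reads over 75 min. Buffer: pCa (PIPES, CaCl2, EGTA), pH 7.0. Linear-regression slopes vs vehicle, 4PL fit; reported as concentration giving 75% (Y75) or 125% (Y125) of vehicle activity.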

Row | Structure (SMILES) | Skeletal EC25
31 | Cc1c(C2(C(=O)N[C@@H](C)c3ncc(C#N)cc3F)CC2)c(=O)[nH]c2ccc(F)c(C#N)c12 (single isomer, unassigned) [compound 2524] | 0.13 µM
32 | Cc1c(CC(=O)N[C@@H](C)c2ccc(C#N)nn2)c(=O)[nH]c2ccc(F)cc12 [compound 1120] | 2.90 µM

same assay, conditions: Y75 value: concentration required to reduce myosin ATP-ase activity by 25%; Rabbit Psoas Prep pCa 25 GEOM_MEAN

Row | Structure (SMILES) | Skeletal EC25
33 | CC(NC(=O)Cc1cc2cc(F)ccc2[nH]c1=O)c1cc(C#N)c(F)s1 (stereo not drawn) [compound 4002] | 4.10 µM

same assay, conditions: rabbit psoas myofibrils; Y75 value

Row | Structure (SMILES) | Skeletal EC25
34 | Cc1nccc2[nH]c(=O)c(CC(=O)N[C@H](C)c3ncc(C#N)cn3)c(C)c12 [compound 482] | 100.00 µM
35 | Cc1c(CC(=O)N[C@H](CO)c2ccc(C#N)cc2F)c(=O)[nH]c2ccnc(C(F)(F)F)c12 (single isomer, unassigned) [compound 224] | 0.36 µM
36 | C[C@H](NC(=O)[C@H](C)c1cc2c(C#N)nccc2[nH]c1=O)c1ccc(F)cc1F (single isomer, unassigned) [compound 360] | 0.05 µM
37 | Cc1nccc2[nH]c(=O)c(CC(=O)N[C@@H](C)c3ccc(C#N)cn3)c(C)c12 (single isomer, unassigned) [compound 254] | 1.78 µM
38 | Cc1cnncc1[C@H](C)NC(=O)Cc1c(C)c2c(C)nccc2[nH]c1=O [compound 481] | 100.00 µM
39 | CCCOc1nccc2[nH]c(=O)c(CC(=O)N[C@@H](C)c3ccc(F)cc3F)c(C)c12 [compound 384] | 0.04 µM
40 | C[C@H](NC(=O)Cc1c(C2CC2)c2cnccc2[nH]c1=O)c1ccc(F)cc1F [compound 444] | 0.17 µM
41 | Cc1c(CC(=O)N[C@H]2c3c(F)cc(F)cc3OC2(C)C)c(=O)[nH]c2ccnc(C#N)c12 (single isomer, unassigned) [compound 187] | 0.05 µM
42 | Cc1ccc2[nH]c(=O)c(CC(=O)N[C@@H](C)c3ncc(C#N)cc3F)cc2n1 [compound 463] | 9.72 µM
43 | Cc1nccc2[nH]c(=O)c(C3(C(=O)N[C@H](C)c4ccc(C#N)cc4F)CC3)c(C)c12 (single isomer, unassigned) [compound 3516] | 0.24 µM
44 | Cc1nccc2[nH]c(=O)c(CC(=O)N[C@@H]3CCc4cc(C#N)cc(F)c43)c(C)c12 (single isomer, unassigned) [compound 197] | 4.23 µM
45 | Cc1nccc2[nH]c(=O)c([C@H](C)C(=O)N[C@H](C)c3ccc(C#N)cc3F)c(C)c12 (single isomer, unassigned) [compound 184] | 100.00 µM

Reference: patent US12448369B2 (Edgewise Therapeutics, Inc., priority 2023, dated 2025)
